Data taken from patent US20030208035A1, “Antifungal and/or antibacterial peptides, preparation methods, compositions containing same and methods of treating mammals and/or plants” (priority 2000, published 2003).
Values after ≈ are worked out from the molar mass of the structure shown. Where two headings read alike, the source gives them in different places. Bridges are numbered along the chain shown (N, C = ends). Where no end group is shown, it is not given here.

What was measured:
A. fumigatus = format: cell-based
Experimental: (§1) The antifungal activity was detected by a growth inhibition test in a liquid medium.
(§2) The filamentous fungi (A. fumigatus, A. flavus and A. terreus, donated by Dr. H. Koenig, Hôpital Civil, Strasbourg; and S. prolificans and F. solani donated by Drs. J. Meis and J. Mouton, University hospital, Microbioolgy Department, Nijmegen, Netherlands) were seeded on Malt-Agar slant gelose (Biomerieux) and incubated 7 days at 37° C.
(§3) The spores were then collected with 10 ml YPG medium containing 0.05% Tween 20 and filtered through a gauze. The spores were centrifuged 10 min at 1700 rpm, the residue was collected in YPG (1 g Yeast extract, 1 g Peptone, 3 g Glucose per 1 l).
(§4) The suspension was counted with a Coverslide and adjusted to 10^4 spores/ml.
(§5) 100 μl of peptide dilutions (concentration of 50 with 0.097 μg/ml peptide) were deposited in microtitration plates. 100 μl with 10^4 spores/ml of filamentous fungi, i.e. 1000 spores, were then added.
(§6) The test plates were incubated 48 h at 37° C.
(§7) Determination of minimum inhibiting concentrations (MIC) was made by observing well cover rate. The MIC score was set at 50% well covering.

[1] = test system: fluconazole-resistant C. albicans; assay: microbe, parasite or virus in culture; format: cell-based, Candida albicans
Experimental: (§8) Candida yeasts (C. albicans, C. glabrata, C. dubliensis, C. tropicalis, C. kefyr, C. krusei and C. parapsilosis—donated by Dr. H. Koenig, Hôpital Civil, Strasbourg), fluconazole-resistant C. albicans (n^o245962, n^o2332, n^o246335 and n^o3552, donated by Drs. J.Meis and J. Mouton, University Hospital, Microbiology Department, Nijmegen, Netherlands), and Cryptoccocus neoformans (donated by Dr. H. Koenig, Hôpital Civil, Strasbourg) were seeded on Sabouraud-Cloramphenicol Agar slant gelose (Biomerieux) and left to incubate for 24 h at 30° C. (Candida sp.) and for 72 h at 37° C. (Cryptoccocus neoformans).
(§9) Some yeast colonies were placed in suspension in liquid Sabouraud medium (Biomerieux) to obtain a final concentration of 0.1 OD at 600 nm corresponding to 2.5.10^6 yeasts/ml.
(§10) The yeast suspension was adjusted to 5.10^3 yeast/ml in Sabouraud medium.
(§11) 100 μl of peptide dilutions (concentration of 50 with 0.097 μg/ml peptide) were deposited in microtitration plates. After adding […] of yeast suspension with 5.10^3 yeast/ml i.e. 500 yeasts, the test plates were incubated 24 h at 30° C. (Candida) under slow shaking or 72 h at 37° C. (Cryptoccocus).
(§12) Determination of minimal inhibiting concentrations (MIC) was made by measuring absorbency at 600 nm using a spectrophotometer-microtitration plate reader. The MIC score was set at a growth inhibition rate of 50%.

F. solani = assay: Test to detect activity against filamentous fungi (MIC); format: cell-based; conditions: F. solani FFUS 8591
Experimental: as §1, §2, §3, §4, §5, §6, §7

S. prolificans = assay: as above; format: cell-based
Experimental: as §1, §2, §3, §4, §5, §6, §7

Aspergillus fumigatus = assay: anti-Aspergillus fumigatus growth inhibition test in liquid medium (96-well microplates); format: cell-based
Experimental: (§13) The anti-Candida albicans and anti-Aspergillus fumigatus activities of the different analogues were assessed using a growth inhibition test in liquid medium made in 96-well microplates. The activity of the purified peptides was tested for different dilutions of each peptide and was compared with those of heliomycin and Ard1 quantified under the same conditions.
The spores of Aspergillus fumigatus were derived from a stock frozen at −80° C., containing 10^7 spores/ml in a 25% glycerol solution. After slow thawing at room temperature, the spores were placed in suspension in PDB culture medium (12 g Potato Dextrose Broth medium, per […] water). 10 μl of each sample were deposited in the wells of microtitration plates in the presence of 90 μl PDB culture medium supplemented with tetracycline (100 μg/ml) and cefotaxime (1 μg/ml) containing the spores (at a final concentration of 1000 spores/well). Control cultures were systematically made in which 10 μl of sample were replaced by 10 μl of sterile water. Media sterility was controlled by incubating 10 μl sterile water in the presence of 90 μl of medium. The samples were incubated at 37° C. for 24 h to 48 h in a humid atmosphere, and the antifungal activity was quantified by a score of 0 to 9 taking germination account; the size and morphology of the hyphs were determined under the binocular microscope. […].

[2] = test system: Candida albicans (IHEM 8060 strain); assay: Candida albicans infected model, lethal in mice (disseminated candidiasis); format: in vivo
Experimental: Heliomycin and its analogues were tested for in vivo antifungal activity in a model infected with Candida albicans, lethal in mice. The pathogenic agent Candida albicans (IHEM 8060 strain) was inoculated by intravenous route (i.v.) at a dose of 2.5×10^6 CFU/mouse. the peptides were administered by i.v. route in 4 injections 6 h, 24 h, 48 h and 72 h after infection. Assessment criteria for activity were evaluation of survival and morbidity at 7 days. The morbidity scores, which take into account general state of health (condition of fur, mobility, hydration) were determined for each mouse with values ranging from 0 to 5 and defined below: 0=dead, 1=moribund, 2=very ill, 3=ill, 4=slightly ill, 5=healthy. The sum of the individual scores was calculated for each group, a score of 50 for a group of 10 mice meaning that all the mice were healthy.
Following a standard protocol, groups of 10 Swiss OF1 male mice weighing 12 g were infected via i.v. route with a dose of 2.5×10^6 CFU/mouse. Heliomycin and Ard1 were administered by i.v. route in 4 injections, 6 h, 24 h, 48 h and 72 h after infection. For each peptide, 2 doses were tested: 10 mg/kg and 30 mg/kg. A placebo group was injected with peptide solvent, 0.9% sodium chloride.
In this experiment, inoculation of the mice with 2.5.10^6 CFU/mouse was 50% lethal at day 5 in the group which received placebo treatment. The first deaths occurred on post-infection day 2.5 and median mortality occurred on post-infection day 5. On day 7, 5 mice were alive and the morbidity score 15/50.
In this experiment, inoculation of Swiss OF1 mice weighing 15 g with 3.10^6 CFU of Candida albicans induces 50% mortality on day 4 after infection in the group treated with the placebo. The first deaths occur 2.5 days after infection, and 100% of the mice were dead on day 5.5.
In this experiment, inoculation of the mice with 2.5.10^6 CFU/mouse was 50% lethal at day 5 and 100% at day 8 for mice in the placebo group. The first death occurred 3 days after infection. The morbidity score fell rapidly below 30/50 (25/50 at day 2.5).
The pEM35 peptide was administered at doses of 10 and 30 mg/kg/injection with 3 daily doses for 4 days (1 h, 5 h and 10 h post-infection on day 0; at 8 h, 14 h and 20 h on days 1, 2 and 3), i.e., daily doses totalling 30 and 90 mg/kg.

C. glabrata = format: cell-based
Experimental: as §8, §9, §10, §11, §12

C. kefyr = format: cell-based
Experimental: as §8, §9, §10, §11, §12

C. krusei = format: cell-based
Experimental: as §8, §9, §10, §11, §12

Alternaria brassicola = format: cell-based; conditions: 48 h
Experimental: (§14) 100 μl of peptide dilutions (concentration 50 with 0.097 mg/ml peptide) were deposited in microtitration plates.
(§15) After adding 100 μl of frozen spores with 10^4 spores/ml of A. brassicola and N. crassa (donated by Dr. Bullet, IBMC, Strasbourg) the test plates were incubated 48 h at 30° C.
(§16) Determination of minimal inhibiting concentrations (MIC) was made by observing well cover rate. The MIC was set at 50% well covering.

Neurospora crassa = format: cell-based; conditions: 48 h
Experimental: as §14, §15, §16

Candida albicans = assay: anti-Candida albicans growth inhibition test in liquid medium (96-well microplates); format: cell-based; conditions: fold relative to Ard1
Experimental: as §13
The activity test was made directly on yeasts derived from a stock frozen at −80° C., in Sabouraud medium containing 15% glycerol. The density of the yeasts in the stock was adjusted to an optical density of 0.4 OD at 600 nm. After slow thawing at room temperature, the yeast suspension was reduced by dilution to an optic density of 1 mOD at 600 nm in Sabouraud medium, and 90 μl of this dilution were deposited in the wells of microtitration plates in the presence of 10 μl of sample to be tested. Control samples were systematically made in which 10 μl of sample were replaced by 10 μl of sterile water. Media sterility was controlled by incubating 10 μl sterile water in the presence of 90 μl of medium. The samples were incubated at 30° C. for 40 h under slight stirring and the antifungal activity was quantified by measuring optic density at 600 nm.

C. albicans = format: cell-based, Candida albicans; conditions: 24 h
Experimental: as §8, §9, §10, §11, §12

C. parapsilosis = format: cell-based
Experimental: as §8, §9, §10, §11, §12

C. tropicalis = format: cell-based
Experimental: as §8, §9, §10, §11, §12

[3] = fluconazole-resistant C. albicans n° 2332
[4] = fluconazole-resistant C. albicans n° 245962
[5] = fluconazole-resistant C. albicans n° 246335
[6] = FIGS. 2-3, 10 mg/kg i.v., 4 injections

Question: Which results are given for `C[C@@H]1[C@H](O)[C@@H](C)/C=C/C=C/C=C/C=C/C=C/C=C/C=C/[C@H](O[C@@H]2O[C@H](C)[C@@H](O)[C@H](N)[C@@H]2O)C[C@@H]2O[C@](O)(C[C@@H](O)C[C@@H](O)[C@H](O)CC[C@@H](O)C[C@@H](O)CC(=O)O[C@H]1C)C[C@H](O)[C@H]2C(=O)O` [ampho B, Amphotericin B]?
Answer: MIC (A. fumigatus; A. fumigatus FASF 5161): 0.5 µg/mL (≈ 0.541 µM); MIC [1, 3]: 0.25 µg/mL (≈ 0.271 µM); MIC [1, 4]: 0.125 µg/mL (≈ 0.135 µM); MIC [1, 5]: 0.0625 µg/mL (≈ 0.0676 µM); MIC (F. solani): > 16 µg/mL; MIC (S. prolificans; S. prolificans FSSP 7902): > 16 µg/mL; MIC (S. prolificans; S. prolificans FSSP 7908): > 16 µg/mL

Question: `OC(Cn1cncn1)(Cn1cncn1)c1ccc(F)cc1F` [fluconazole] was tested. Which MIC ([1]; Candida albicans, fluconazole-resistant C. albicans n° 3552, read-out: MIC) did it give?
Answer: Its MIC is > 64 µg/mL.

Question: What about the MIC [1, 3] of the same compound?
Answer: The MIC was “> at 64 μg/ml”.

Question: And the MIC [1, 4]?
Answer: Its MIC is “> at 64 μg/ml”.

Question: What about the MIC [1, 5] of the same compound?
Answer: The MIC was “> at 64 μg/ml”.

Question: With “DKLIGSCVWGAVNYTSNCNAECKRRGYKGGHCGSFANVNCWCET (disulfide 7-32, 18-40, 22-42 (inferred)) [Ard1]” as the compound, how does the “Activity A.f. (relative activity in relation to heliomycin)” value (Aspergillus fumigatus; fold relative to heliomycin) read?
Answer: Its value is 2.

Question: And the “effect on survival and general condition of the mice” value [2, 6]?
Answer: Its value is “did not make it possible to improve survival”.

Question: What about the “time after infection at which 50% of mice were dead” value [2, 6] of the same compound?
Answer: Its value is 2 days.

Question: And the “mice alive on day 7 (out of 10)” value ([2]; FIGS. 2-3, 30 mg/kg i.v., 4 injections)?
Answer: Its value is 5 mice.

Question: What about the “morbidity score at day 7” value ([2]; FIGS. 2-3, 30 mg/kg i.v., 4 injections, 50 = all 10 mice healthy) of the same compound?
Answer: Its value is 16/50.

Question: What about the “delay of onset of the first death” value ([2]; FIGS. 2-3, 30 mg/kg i.v., 4 injections, vs placebo) of the same compound?
Answer: Its value is 24 h.

Question: And the “mice alive on day 7 (out of 10)” value ([2]; FIGS. 4-5, 10 mg/kg, placebo 5 alive)?
Answer: Its value is 8 mice.

Question: What about the “delay of onset of the first death” value ([2]; FIGS. 4-5, 2.5.10^6 CFU/mouse, 10 mg/kg, placebo first deaths day 2.5) of the same compound?
Answer: Its value is 36 h.

Question: And the “effect on mouse survival relative to placebo treatment” value ([2]; FIGS. 6-7, 3.10^6 CFU, 5 mg/kg, three i.v. injections, 10 mice of 15 g)?
Answer: The value was “does not significantly increase mouse survival”.

Question: And the “effectiveness in the candidiasis infected model” value ([2]; FIGS. 6-7, dose 5 mg/kg)?
Answer: The value was “not effective”.

Question: What about the MIC (C. glabrata) of the same compound?
Answer: Its MIC is >25 µg/mL.

Question: What about the MIC (C. kefyr) of the same compound?
Answer: The MIC was >25 µg/mL.

Question: And the MIC (C. krusei)?
Answer: Its MIC is 3.125 µg/mL.

Question: And the MIC (A. fumigatus; 48 h)?
Answer: Its MIC is 12.5 µg/mL.

Question: And the MIC (Alternaria brassicola)?
Answer: The MIC was >25 µg/mL.

Question: What about the MIC (Neurospora crassa) of the same compound?
Answer: The MIC was 0.097 µg/mL.

Question: How did the “Activity C.a. (relative activity in relation to Ard1)” value (Candida albicans) turn out when “DKLIGSCVWGAVNYTSNCNAECKRRGYKGGHCGSFLNVNCWCER (disulfide 7-32, 18-40, 22-42 (inferred)) [pEM48]” was run?
Answer: Its value is 6-12.

Question: And the “Activity A.f. (relative activity in relation to Ard1)” value (Aspergillus fumigatus; fold relative to Ard1)?
Answer: Its value is 1-2.

Question: And the MIC (C. albicans)?
Answer: The MIC was 1.56 µg/mL.

Question: What about the MIC (C. glabrata) of the same compound?
Answer: Its MIC is >25 µg/mL.

Question: What about the MIC (C. kefyr) of the same compound?
Answer: Its MIC is 25 µg/mL.

Question: What about the MIC (C. krusei) of the same compound?
Answer: Its MIC is 1.56 µg/mL.

Question: And the MIC (C. parapsilosis)?
Answer: Its MIC is 0.78 µg/mL.

Question: And the MIC (C. tropicalis)?
Answer: The MIC was 3.125 µg/mL.

Question: And the MIC (Alternaria brassicola)?
Answer: The MIC was 12.5 µg/mL.

Question: What about the MIC (Neurospora crassa) of the same compound?
Answer: Its MIC is 0.39 µg/mL.
